Data: article PMC9490236, “Accurate de novo design of membrane-traversing macrocycles” (Cell, 2022)
Like-named read-outs stand apart in the source and are kept apart here. Where a SMILES comes first, the peptide text is derived from it. [ ]: non-standard residue; d: D form. NMeF = CN[C@@H](Cc1ccccc1)C(=O)O; dNMeF = CN[C@H](Cc1ccccc1)C(=O)O; NMeL = CN[C@@H](CC(C)C)C(=O)O; dNMeL = CN[C@H](CC(C)C)C(=O)O; dNMeV = CN[C@@H](C(=O)O)C(C)C; NMeA = CN[C@@H](C)C(=O)O; dNMeA = CN[C@H](C)C(=O)O

Columns and labels:
[1] = Parallel artificial membrane permeability assay (PAMPA); details: for PAMPA_R1 / PAMPA_R3: PAMPA Papp; for PAMPA_R1: replicate 1; for PAMPA_R3: replicate 3; for Papp: PAMPA
[2] = PAMPA
in vitro = details: PAMPA, PAMPA_Papp_Avg
Caco-2 cells = assay: Caco-2 permeability assay (apical to basolateral); assay type: in vitro ADME, human; details: Caco-2
Method in brief: (§1)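 Caco-2 monolayers were grown on 0.4 μm Transwell inserts for 6 days. Peptides were applied apically at 50 μM with HBSS basolaterally and incubated 90 min at 37°C with shaking.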

[3] = Caco-2 permeability assay (apical to basolateral); assay type: in vitro ADME, human; details: for Papp A→B: Caco-2, Caco_Papp_Average
Method in brief: as §1

[4] = PAMPA, apparent permeability (Papp) in PAMPA
[5] = BQL = no significant peak detected for the peptide in the acceptor wells
[6] = BQL: No significant peak detected for the peptide in the acceptor wells
[7] = average of 3 replicates, BQL: No significant peak detected for the peptide in the acceptor wells

Structure (SMILES) | PAMPA_R1 [2] | PAMPA_R3 [2] | Papp (in vitro) [×10⁻⁶ cm/s] | Caco_R1 (Caco-2 cells) | Caco_R3 (Caco-2 cells) | Papp A→B [3] [×10⁻⁶ cm/s] | PAMPA_R1 [1, 6] | PAMPA_R3 [1, 6] | other results
CC[C@@H](C)[C@H]1NC(=O)[C@@H]2CCCN2C(=O)[C@@H](Cc2ccccc2)N(C)C(=O)[C@@H](CC(C)C)N(C)C(=O)[C@@H](C(C)C)NC(=O)[C@@H](CC(C)C)N(C)C(=O)[C@H](Cc2ccccc2)N(C)C(=O)[C@H](C(C)C)NC(=O)[C@H]2CCCN2C1=O [Design D9.7, VAL *PHE *DLEU DVAL *DLEU *DPHE PRO DILE DPRO] (cyclo([NMeF][dNMeL][dV][dNMeL][dNMeF]P[dI][dP]V)) | – | – | – | – | – | – | – | – | PAMPA_R1 [1, 5]: BQL; PAMPA_R3 [1, 5]: BQL; PAMPA_Papp_Avg ([1]; average of replicates R1-R3, BQL = no significant peak detected for the peptide in the acceptor wells): BQL
CC[C@H](C)[C@@H]1NC(=O)[C@@H](CC(C)C)N(C)C(=O)[C@H](CC(C)C)N(C)C(=O)[C@@H](Cc2ccccc2)NC(=O)[C@@H](CC(C)C)N(C)C(=O)[C@H]2CCCN2C(=O)[C@H]2CCCN2C(=O)[C@@H]2CCCN2C(=O)[C@@H](C(C)C)NC(=O)[C@@H]2CCCN2C(=O)[C@H](C)NC1=O [Design D11.11, PRO DPRO DPRO *DLEU DPHE *LEU *DLEU ILE ALA PRO DVAL] (cyclo(AP[dV]P[dP][dP][dNMeL][dF][NMeL][dNMeL]I)) | 1.97E-06 | 2.38E-06 | 2.26 | 2.88 | 5.78 | 4.92 | – | – | –
CC[C@H](C)[C@@H]1NC(=O)[C@@H]2CCCN2C(=O)[C@H]2CCCN2C(=O)[C@@H](CC(C)C)NC(=O)[C@@H](CC(C)C)N(C)C(=O)[C@@H](C(C)C)NC(=O)[C@H](C(C)C)NC(=O)[C@H]2CCCN2C(=O)[C@@H]2CCCN2C(=O)[C@H]([C@@H](C)CC)NC(=O)[C@H](C)N(C)C1=O [Design D11.13, PRO DPRO VAL DVAL *DLEU DLEU DPRO PRO ILE *ALA ILE] (cyclo(I[NMeA]IP[dP]V[dV][dNMeL][dL][dP]P)) | 9.91E-07 | 1.30E-06 | 1.07 | 4.34 | 4.75 | 4.5 | – | – | –
CC(C)C[C@@H]1NC(=O)[C@H](CC(C)C)N(C)C(=O)[C@H]2CCCN2C(=O)[C@H]2CCCN2C(=O)[C@H](CC(C)C)NC(=O)[C@@H](CC(C)C)N(C)C(=O)[C@@H](C)NC(=O)[C@@H](CC(C)C)N(C)C(=O)[C@H]2CCCN2C(=O)[C@@H](CC(C)C)NC(=O)[C@@H](C)N(C)C1=O [Design D11.15, LEU DPRO DPRO *LEU LEU *DALA DLEU DPRO *DLEU DALA *DLEU] (cyclo(L[dNMeA][dL][dP][dNMeL][dA][dNMeL]L[dP][dP][NMeL])) | – | – | – | – | – | – | 9.49E-07 | 1.56E-06 | Papp [1]: 1.29 ×10⁻⁶ cm/s
CC[C@@H](C)[C@H]1NC(=O)[C@H]2CCCN2C(=O)[C@H]([C@@H](C)CC)NC(=O)[C@@H]2CCCN2C(=O)[C@H]2CCCN2C(=O)[C@@H](CC(C)C)NC(=O)[C@H](CC(C)C)NC(=O)[C@H](C(C)C)NC(=O)[C@H](CC(C)C)NC(=O)[C@H](C)NC(=O)[C@H](C)NC(=O)[C@@H]2CCCN2C1=O [Design D12.1, PRO ILE DPRO DILE PRO ALA ALA LEU VAL LEU DLEU DPRO] (cyclo(I[dP][dI]PAALVL[dL][dP]P)) | – | – | – | – | – | – | BQL | BQL | PAMPA_Papp_Avg [1, 7]: BQL
CC[C@@H](C)[C@H]1NC(=O)[C@@H](CC(C)C)N(C)C(=O)[C@@H]2CCCN2C(=O)[C@H](C(C)C)NC(=O)[C@@H](C)N(C)C(=O)[C@@H]2CCCN2C(=O)[C@@H](CC(C)C)NC(=O)[C@@H](C(C)C)N(C)C(=O)[C@@H]2CCCN2C(=O)[C@H](C)NC(=O)[C@H](C(C)C)NC(=O)[C@@H]2CCCN2C1=O [Design D12.5, VAL PRO *DLEU DILE PRO VAL ALA PRO *DVAL DLEU PRO *DALA] (cyclo(AP[dNMeV][dL]P[dNMeA]VP[dNMeL][dI]PV)) | – | – | – | – | – | – | 1.24E-07 | 1.52E-07 | Papp [1]: 0.1 ×10⁻⁶ cm/s
CC[C@H](C)[C@@H]1NC(=O)[C@H](Cc2ccccc2)N(C)C(=O)[C@H]2CCCN2C(=O)[C@H]([C@@H](C)CC)NC(=O)[C@@H](C)N(C)C(=O)[C@@H](C)NC(=O)[C@@H]2CCCN2C(=O)[C@H]2CCCN2C(=O)[C@H](CC(C)C)NC(=O)[C@@H](CC(C)C)NC(=O)[C@H](CC(C)C)NC(=O)[C@H]2CCCN2C1=O [Design D12.6, DPRO *PHE ILE DPRO LEU DLEU LEU DPRO PRO DALA *DALA ILE] (cyclo([dA][dNMeA]I[dP][NMeF]I[dP]L[dL]L[dP]P)) | 2.43E-06 | 1.22E-06 | 1.47 | 2.06 | 4.18 | 2.84 | – | – | Papp [4]: 1.47 ×10⁻⁶ cm/s; Papp at 90 min, 50 µM ([3]; human, Caco-2): 2.84 ×10⁻⁶ cm/s
CC[C@@H](C)[C@H]1NC(=O)[C@@H](C)N(C)C(=O)[C@H](CC(C)C)NC(=O)[C@@H](CC(C)C)NC(=O)[C@H]2CCCN2C(=O)[C@H](CC(C)C)N(C)C(=O)[C@@H](C(C)C)NC(=O)[C@@H](CC(C)C)N(C)C(=O)[C@H](C(C)C)NC(=O)[C@@H](C(C)C)NC(=O)[C@@H]2CCCN2C(=O)[C@H]2CCCN2C1=O [Design D12.10, *LEU DPRO DLEU LEU *DALA DILE DPRO PRO DVAL VAL *DLEU DVAL] (cyclo([dV]V[dNMeL][dV][NMeL][dP][dL]L[dNMeA][dI][dP]P)) | – | – | – | – | – | – | BQL | BQL | PAMPA_Papp_Avg [1, 7]: BQL
